Experimental data from publication PMC8949375, “Design, Green Synthesis and Tailoring of Vitamin E TPGS Augmented Niosomal Nano-Carrier of Pyrazolopyrimidines as Potential Anti-Liver and Breast Cancer Agents with Accentuated Oral Bioavailability” (Pharmaceuticals, 2022).
Read-outs that look alike come from different tables or passages of the source.

What was measured:
HepG2 cell line = experiment: MTT cytotoxicity assay, HepG2; assay type: cell-based; conditions: Homo sapiens
Excerpt: (§1) The human HCC cell line, HEPG-2, was obtained from the American Type Culture Collection and used to evaluate the effects of the following drugs. MCF-7(ATCC® HTB-22TM, Manassas, VA, USA) breast cancer cells were derived from mammary gland or breast at a metastatic site. […] The human Caco-2 cell line, Caco-2, was obtained from the American Type Culture Collection and used to evaluate the effects of the following drugs. […], Manassas, VA, USA), epithelial-like lung carcinoma, was derived from lung tissue at a metastatic site. The human A549 cell line, A549, was obtained from the American Type Culture Collection and used to evaluate the effects of the following drugs. […] LLC., Burlington, VT, USA). Penicillin/streptomycin (Gibco®, Grand Island, NY, USA) was applied at 100 units/mL and 100 μg/mL, respectively. Growth inhibition was determined by classic MTT assay. In brief, HEPG2, A549, MCF-7 and Caco-2 cells were added to a cell culture MTT assay plate at a concentration of 5 × 10^3 cells/well in 1640 medium and cultured overnight. The different treatments were added on day 1 according to the calculated doses except on the control well and standard, then incubated for 24 h.

[1] = test system: VEGFR-2 protein expression level in HepG2 cell line; experiment: Human VEGF receptor-2 ELISA in HepG2; assay type: cell-based; parameters: concentration or dose not given beside the values; conditions: compared to control
Procedure: (§2) Total protein was assayed using the method described by Bradford. The Human VEGF receptor-2 ELISA Kit (ab213476), (96 tests) was purchased from (abcam®, Waltham, MA, USA). The kit is a sandwich enzyme immunoassay for the in vitro quantitative measurement of human VEGFR-2 in tissue homogenates, cell lysates and other biological fluids according to the manufacturer’s instructions.

[2] = test system: VEGF protein expression level in HepG2 cell line; experiment: VEGF ELISA in HepG2 cell culture supernatant; assay type: cell-based, human; parameters: concentration or dose not given beside the values; conditions: compared to control
Procedure: (§3) Total protein was assayed using the method described by Bradford. The VEGF ELISA Assay Kit (VEGF) and ELISA Kit, (#VGF31-[…]) were purchased from (Eagle Biosciences CO., LTD, Amherst, NH, USA). The kit is a sandwich enzyme immunoassay for the in vitro quantitative determination of VEGF concentrations in cell culture supernates, serum and plasma according to the manufacturer's instructions.

[3] = test system: VEGF gene expression level in HepG2 cell line; experiment: Real-time PCR of VEGF gene expression, HepG2; assay type: cell-based, human; conditions: HepG2, 3 days of treatment, compared to control, in words
Procedure: RT-PCR was applied to evaluate the VEGF gene expression level. Briefly, total RNA was extracted, and the extracted total RNA concentration was determined using a NanoDrop 2000 spectrophotometer (Thermo Fisher, Waltham, MA, USA). To determine the relative expression levels, the 2^−ΔΔCT method was used. NCBI/Primer Blast was used to define the primer sequences. The experiments were performed in quadruplicate. The primer sequences of VEGF and β-actin genes are listed below: […]

[4] = test system: HepG2, MCF-7, A-549 and CaCo-2 cell lines; experiment: MTT cytotoxicity assay, summary over all tested cell lines; assay type: cell-based, human; conditions: Homo sapiens; range over compounds and cell lines; read-out: IC50 values versus all tested cell lines (collective range)
Excerpt: (§4) • HepG2 [HEPG2] (ATCC® HB-8065™, Manassas, VA, USA) epithelial hepatocellular carcinoma was derived from the liver tissue of a person (a well-differentiated hepatocellular carcinoma). The human HCC cell line, HEPG-2, was obtained from the American Type Culture Collection and used to evaluate the effects of the following drugs. MCF-7(ATCC® HTB-22™, Manassas, VA, USA) breast cancer cells were derived from mammary gland or breast at a metastatic site. The human MCF-7 cell line, MCF-7, was obtained from the American Type Culture Collection and used to evaluate the effects of the following drugs. • Caco 2 [Caco2] (ATCC® HTB 37™, Manassas, VA, USA) epithelial colorectal adenocarcinoma was derived from the colon at a metastatic site. The human Caco-2 cell line, Caco-2, was obtained from the American Type Culture Collection and used to evaluate the effects of the following drugs. A549 (ATCC® CCL-185™, Manassas, VA, USA), epithelial-like lung carcinoma, was derived from lung tissue at a metastatic site. The human A549 cell line, A549, was obtained from the American Type Culture Collection and used to evaluate the effects of the following drugs.
(§5) HEPG2, A549, MCF-7 and Caco-2 cells were maintained in a monolayer culture in a T-25 flask at 5% CO2 and 37 °C in DMEM (Lonza, Verviers, Belgium) and supplemented with 10% (v/v) FBS (Sigma-Aldrich Co. LLC., Burlington, VT, USA). Penicillin/streptomycin (Gibco®, Grand Island, NY, USA) was applied at 100 units/mL and 100 µg/mL, respectively.
(§6) Growth inhibition was determined by classic MTT assay. In brief, HEPG2, A549, MCF-7 and Caco-2 cells were added to a cell culture MTT assay plate at a concentration of 5 × 10^3 cells/well in 1640 medium and cultured overnight. The different treatments were added on day 1 according to the calculated doses except on the control well and standard, then incubated for 24 h. Measurement was achieved using a microplate reader (Model 550, Bio-Rad, Hercules, CA, USA).

CaCo-2 cell line = experiment: MTT cytotoxicity assay, CaCo-2; assay type: cell-based; conditions: Homo sapiens, read-out: IC50 CaCo-2 Colon Cancer
Excerpt: as §4, §5, §6

[5] = test system: VEGF protein expression level in MCF-7 cell line; experiment: VEGF ELISA in MCF-7 cell culture supernatant; assay type: cell-based, human; parameters: concentration or dose not given beside the values; conditions: MCF-7, ELISA, compared to control
Procedure: as §3

MCF-7 cell line = experiment: MTT cytotoxicity assay, MCF-7; assay type: cell-based; conditions: Homo sapiens, MCF7, read-out: IC50 MCF-7 Breast Cancer
Excerpt: as §1

A-549 cell line = experiment: MTT cytotoxicity assay, A-549; assay type: cell-based; conditions: Homo sapiens, A549, read-out: IC50 A-549 Lung Carcinoma
Excerpt: as §4, §5, §6

[6] = test system: VEGFR-2 protein expression level in MCF-7 cell line; experiment: Human VEGF receptor-2 ELISA in MCF-7; assay type: cell-based; parameters: concentration or dose not given beside the values; conditions: MCF-7, ELISA, compared to control
Procedure: as §2

melting point: 264 to 266 °C
Compound: Cc1ccc(N=Nc2c(N)nn3c(N)c(N=Nc4ccc(S(=O)(=O)N=C(N)N)cc4)c(N)nc23)cc1 [Compound 7, N-(Diaminomethylene)-4-((2,5,7-Triamino-3-(4-Tolyldiazenyl)Pyrazolo[1,5-a]Pyrimidin-6-yl)Diazenyl)Benzenesulfonamide]
IC50 (HepG2 cell line; TPGS-coated vs uncoated niosomes vs pure compound, read-out: IC50 Hepg2 Liver Carcinoma): 6 µM
IC50 (HepG2 cell line; read-out: IC50 HepG2 Livercarcinoma): 6 µM
VEGFR-2 24 h % Inhibition ([1]; 24 h): 69.7%
VEGFR-2 72 h % Inhibition ([1]; 72 h): 72.3%
VEGF 24 h % Inhibition ([2]; 24 h): 51.5%
VEGF 72 h % Inhibition ([2]; 72 h): 70.3%
VEGF gene expression level [3]: best VEGF gene expression level downregulation
IC50 [4]: 6 to 50 µM
IC50 (CaCo-2 cell line): 6 µM
VEGF 24 h % Inhibition ([5]; 24 h): 50%
VEGF 72 h % Inhibition ([5]; 72 h): 62.5%
IC50 (MCF-7 cell line): 12 µM
IC50 (A-549 cell line): 12 µM
VEGFR-2 24 h % Inhibition ([6]; 24 h): 60%
VEGFR-2 72 h % Inhibition ([6]; 72 h): 62.5%
